In patent US20240124486A1, “MACROCYCLIC TLR7 AGONIST, PREPARATION METHOD THEREFOR, PHARMACEUTICAL COMPOSITION AND USE THEREOF” (SHANGHAI VISONPHARMA CO., LTD., priority 2020, published 2024):
pEC50: −log10 of the molar value.

Tests used:
human TLR7 = target: T1, human TLR7 (Homo sapiens, UniProt Q9NYK1); assay: Agonistic activity on human TLR7 in HEK-Blue hTLR7 cell line (QUANTI-Blue reporter); assay type: cell-based; settings: HEK-Blue hTLR7 cells, 16-22 h incubation, absorption at 630 nm; read-out: EC50 value of the agonistic effect on human TLR7
T1 construct: host or cells: HEK-Blue hTLR7 (HEK293-derived reporter cells)
T1 sequence (Q9NYK1 27-1049): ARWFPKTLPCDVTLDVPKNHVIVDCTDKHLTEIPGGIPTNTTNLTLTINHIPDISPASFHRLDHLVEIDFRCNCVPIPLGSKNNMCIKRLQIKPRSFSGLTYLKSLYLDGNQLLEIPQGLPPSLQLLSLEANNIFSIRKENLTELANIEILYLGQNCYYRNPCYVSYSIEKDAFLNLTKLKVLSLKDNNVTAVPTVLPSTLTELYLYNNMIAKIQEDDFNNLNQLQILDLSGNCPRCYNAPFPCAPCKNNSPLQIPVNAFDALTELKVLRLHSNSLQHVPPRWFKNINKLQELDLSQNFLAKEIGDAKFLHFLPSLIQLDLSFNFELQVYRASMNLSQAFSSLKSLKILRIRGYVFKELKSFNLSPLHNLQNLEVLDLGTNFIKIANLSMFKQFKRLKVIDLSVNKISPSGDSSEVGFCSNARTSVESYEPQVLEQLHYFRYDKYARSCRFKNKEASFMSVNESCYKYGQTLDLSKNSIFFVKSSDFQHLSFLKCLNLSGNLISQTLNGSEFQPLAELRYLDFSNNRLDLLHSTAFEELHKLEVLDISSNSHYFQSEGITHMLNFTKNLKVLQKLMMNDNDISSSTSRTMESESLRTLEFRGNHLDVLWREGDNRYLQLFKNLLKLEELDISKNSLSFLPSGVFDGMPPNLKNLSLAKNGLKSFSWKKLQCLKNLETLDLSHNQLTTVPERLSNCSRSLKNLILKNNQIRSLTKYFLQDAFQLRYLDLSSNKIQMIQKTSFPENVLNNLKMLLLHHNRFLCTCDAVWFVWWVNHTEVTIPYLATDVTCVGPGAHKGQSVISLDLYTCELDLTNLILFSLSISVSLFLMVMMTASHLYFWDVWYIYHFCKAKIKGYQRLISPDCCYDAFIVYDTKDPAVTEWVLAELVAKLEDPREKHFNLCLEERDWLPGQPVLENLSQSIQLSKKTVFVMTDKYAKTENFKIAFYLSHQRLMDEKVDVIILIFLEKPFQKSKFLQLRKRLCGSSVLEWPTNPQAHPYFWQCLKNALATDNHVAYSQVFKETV
Method: The TLR7 agonistic activity of the compounds of the invention in HEK-Blue™ hTLR7 cell line with stable expression of human TLR7 were assayed using the following method: • 1. Weighed the test compounds and prepared stock solutions with DMSO (Sigma) at a concentration of 10 mM. […] The highest concentration was 1 mM. • 2. The test compounds and DMSO control were diluted 10-fold in DPBS buffer (Gibco) and then added to a 96-well cell culture plate (Corning) at a volume of 20 μL/well. • 3. HEK-Blue™ hTLR7 cells (Invivogen) were digested with cell separation solution (Gibco), and counted (TC-20 cell counter, Bio-rad). Cells were diluted to 4.4E5/ml using DMEM cell medium (Gibco). Added the cells to a 96-well cell culture plate at a volume of 180 μL/well. The cells were incubated for 16-22 h at 37° C. in a 5% CO2 incubator. • 4. Prepared QUANTI-Blue detection reagent (Invivogen), and added into a new 96-well plate at a volume of 180 μL/well. Twenty μL of cell culture supernatant was transferred from the cell culture plate and added to the 96-well plate and incubated at 37° C. for 1-3 hours. • 5. Neo2 multifunctional microplate reader (Bio-Tek) was used to measure the optical absorption at 630 nm, and the EC50 was calculated by GraphPad Prism.
The agonistic effect of the compounds of the invention on human TLR7 can be determined by the above experiments, and the measured EC50 value is shown in Table 1.

[1] = system: human peripheral blood mononuclear cells; assay: IFN-α production by human peripheral blood mononuclear cells stimulated by compounds (ELISA); assay type: cell-based; settings: human PBMC, about 8 hours, supernatant ELISA
Method: • 1. The frozen human peripheral blood mononuclear cells (Miaotong Biotechnology Co., LTD., PB010C) were dissolved in water bath at 37° C. After counting, the cells were diluted to 0.2M/mL, and 150 uL/well was added to the 96-well cell culture plate, and the cells were incubated for 40 hours. • 2. The test compounds were weighed and prepared with DMSO at a concentration of 10 mM. DMSO was used to dilute the test compounds by a 10-fold gradient, with a total of four concentration gradients. The highest concentration was 400 μM. • 3. The test compounds, DMSO control and positive controls were diluted 100 times with cell culture medium (RPMI 1640 cell medium, Gibco), and 50 μL was added to 96-well cell culture plates. • 4. The cells were incubated at 37° C. for about 8 hours, and the supernatant was collected by centrifugation. The level of IFN-α in the supernatant was determined by ELISA (IFN-α ELISA kit, Dakewe). • 5. Light absorption at 450 nm was measured by microplate reader, and IFN-α level in culture supernatant was quantified according to the standard curve.

Compound	pEC50 (human TLR7)	IFN-α concentration post stimulation ([1]; compound 0.1 nM) [pg/mL]	IFN-α concentration post stimulation ([1]; compound 1 nM) [pg/mL]	IFN-α concentration post stimulation ([1]; compound 10 nM) [pg/mL]
Nc1nc2nc3c1[nH]c(=O)n3Cc1ccc(OC3CCNCC3)c(c1)C/C=C/CCO2 [Reference 1, reference compound]	7.82	9	74	159
Nc1nc2nc3c1[nH]c(=O)n3Cc1ccc(Oc3ccc(CNC4CC4)cc3)c(c1)C/C=C\CCO2 [Reference 2, reference compound]	7.51	8	161	558
Nc1nc2nc3c1[nH]c(=O)n3Cc1ccc(O)c(c1)C/C=C/CCO2 [Reference 3, reference compound]	7.39	8	9	284
CCCCOc1nc(N)c2c(n1)N(Cc1cccc(CN3CCCC3)c1)CC(=O)N2 [Vesatolimod, reference compound]			12	12

More lines, main results first:

pEC50 (human TLR7)	Compound	IFN-α concentration post stimulation ([1]; compound 0.1 nM) [pg/mL]	IFN-α concentration post stimulation ([1]; compound 1 nM) [pg/mL]	IFN-α concentration post stimulation ([1]; compound 10 nM) [pg/mL]
6.98	CC(C)(C(=O)O)N1CCc2c3cc(cc2C1)Cn1c(=O)[nH]c2c(N)nc(nc21)OCCCCC3 [Compound I-26]	12	11	96
8.00	CC(C)N1CCc2c3cc(cc2C1)Cn1c(=O)[nH]c2c(N)nc(nc21)OCCCCC3 [Compound I-35]	251	2767	2776
8.00	Nc1nc2nc3c1[nH]c(=O)n3Cc1cc(c3c(c1)CN(C1CCC1)CC3)CCCCCO2 [Compound I-37]	428	1973	2078
7.96	COCCN1CCc2c3cc(cc2C1)Cn1c(=O)[nH]c2c(N)nc(nc21)OCCCCC3 [Compound I-48]	13	2431	2784
8.70	CC(C)N1CCc2cc3cc(c2C1)CCCCCOc1nc(N)c2[nH]c(=O)n(c2n1)C3 [Compound I-50]	1509	2615	2173
8.22	Nc1nc2nc3c1[nH]c(=O)n3Cc1cc(c3c(c1)CCN(C1CCC1)C3)CCCCCO2 [Compound I-51]	530	2759	2472
7.85	Nc1nc2nc3c1[nH]c(=O)n3Cc1cc3c(c(c1)OCCCCO2)CCN(C1CCC1)C3 [Compound I-60]	12	2412	3127
